One assay concerns the target EGFR L858R/T790M (Homo sapiens (Human), UniProt P00533, L858R/T790M). In words: TR-FRET assay for ERBB kinases. The assay is classed as biochemical. As to conditions: geometric mean if measured more than once. The protocol: (§1) TR-FRET Assay for ERBB Kinases
(§2) All compounds and PROTACs were serially diluted in three-fold increments using 100% DMSO, followed by an intermediate 10-fold dilution using Buffer A (50 mM HEPES, pH 7.5, 50 mM NaCl, 10 mM MgCl2, 1 mM DTT, and 0.1% Pluronic F-68). […] Next, 10 uL of protein kinase in Buffer A was added to each well of the assay plate and pre-incubated with compound for 10 minutes. Kinase reactions were then initiated by addition of 5 uL substrate mix containing 3 mM ATP and 30 uM fluorescein-labeled Poly-GluTyr (Thermo Fisher, #PV3610) in Buffer A and allowed to proceed for 10 minutes at room temperature. Reactions were quenched by addition of a 5 uL mixture containing 5 nM LanthaScreen® Tb-pY20 Antibody (Thermo Fisher, #PV3552) and 40 mM EDTA in Buffer A. Assay plates were then read using a Synergy2 (Biotek Instruments, Winooski, Vt.) via excitation thru a 340/20 nm bandpass filter and emission collected thru 490/10 nm (donor) and 520/25 nm (acceptor) bandpass filters.
(In general: Time-resolved FRET reads energy transfer from a long-lived donor to a nearby acceptor.)

In the next assay the target is EGFR L858R/T790M/C797S (Homo sapiens (Human), UniProt P00533, C797S/L858R/T790M). Briefly: TR-FRET assay for ERBB kinases. To be noted: geometric mean if measured more than once. In kind it is biochemical. The protocol:
as §1, §2

A further assay deals with EGFR WT (Homo sapiens (Human), UniProt P00533). Briefly: TR-FRET assay for ERBB kinases. To be noted: geometric mean if measured more than once. In kind it is biochemical. On the procedure:
as §1, §2

Assay [1] has as its target EGFR L858R/T790M/C797S triple mutant (H520*) (Homo sapiens (Human), UniProt P00533, C797S/L858R/T790M). In words: EGFR protein degradation assay (Western blot). To be noted: 72 hours, 300 nM to 10 nM. In kind it is cell-based. The protocol: EGFR Protein Degradation assay
Cells were incubated overnight at 37° C., 5% CO2 prior to compound addition. A 10 mM compound stock in DMSO was serially diluted in DMSO to provide the following stock concentrations: 1, 0.3, 0.1, 0.03 and 0.01 mM. An appropriate volume of each compound dilution, together with a DMSO vehicle control, was added to media to provide a 2× compound solution. […] At the end of the compound treatment, cells were washed once with ice-cold phosphate-buffered saline (PBS) and treated with lysis solution (1× lysis buffer, Cell Signaling Technologies (CST #9803) supplemented with Piarce™ protease inhibitors, #A32953, Thermo Fisher Scientific, TFS). Lysates were collected and clarified of cell debris by spinning at 10K rpm for 10 minutes. A specific volume of supernatant was retrieved for protein quantification (Pierce™ BCA kit, TFS #23225) and for Western analysis. Loading buffer supplemented with EDTA and reducing agent was added to each supernatant. A specific volume of supernatant (determined by protein assay: […] loaded per sample) was loaded into a NuPAGE™ 4-12% Bis-Tris gel (TFS). Samples were run at 165V in MOPS running buffer for 2 hours and then transferred to PVDF blotting membrane using a dry blotting system (iBlot2, TFS). Membranes were blocked in Tris-buffered saline supplemented with Tween, 0.1% (TBST) containing 5% non-fat dry milk, (AmericanBio). Following block, membranes were washed once with TBST. […] Membranes were washed 3× with TBST prior to addition of secondary antibody (1:10 000, anti-rabbit HRP-linked, CST #7074) in TBST with 3% BSA and then incubated at room temperature for one hour. Membranes were then washed 3× with TBS and signal developed by exposure to developer (SuperSignal West Femto, TFS) for 5 minutes. Membranes were then immediately imaged using a BioRad Chemidoc.
Background: In western blotting, separated proteins are transferred to a membrane and probed.

A further assay deals with EGFR Exon20NPG (Homo sapiens (Human), UniProt P00533, INS770NPG). In words: TR-FRET assay for ERBB kinases. The assay is classed as biochemical. To be noted: geometric mean if measured more than once. On the procedure:
as §1
All compounds and PROTACs were serially diluted in three-fold increments using 100% DMSO, followed by an intermediate 10-fold dilution using Buffer A (50 mM HEPES, pH 7.5, 50 mM NaCl, 10 mM MgCl2, 1 mM DTT, and 0.1% Pluronic F-68). Two microliters of serially diluted compound or PROTAC were then transferred to black 384-well Proxiplates (PerkinElmer, #6008260) using an Integra Viaflo96. Next, 10 uL of protein kinase in Buffer A was added to each well of the assay plate and pre-incubated with compound for 10 minutes. Kinase reactions were then initiated by addition of 5 uL substrate mix containing 3 mM ATP and 30 uM fluorescein-labeled Poly-GluTyr (Thermo Fisher, #PV3610) in Buffer A and allowed to proceed for 10 minutes at room temperature. Reactions were quenched by addition of a 5 uL mixture containing 5 nM LanthaScreen® Tb-pY20 Antibody (Thermo Fisher, #PV3552) and 40 mM EDTA in Buffer A. Assay plates were then read using a Synergy2 (Biotek Instruments, Winooski, Vt.) via excitation thru a 340/20 nm bandpass filter and emission collected thru 490/10 nm (donor) and 520/25 nm (acceptor) bandpass filters.

The IC50 is the concentration that inhibits the measured activity by half.

EGFR Exon20NPG, sequence (P00533 other isoform, or with tags, fused parts or gaps del 1-694/ins NPG behind 770 limits assumed): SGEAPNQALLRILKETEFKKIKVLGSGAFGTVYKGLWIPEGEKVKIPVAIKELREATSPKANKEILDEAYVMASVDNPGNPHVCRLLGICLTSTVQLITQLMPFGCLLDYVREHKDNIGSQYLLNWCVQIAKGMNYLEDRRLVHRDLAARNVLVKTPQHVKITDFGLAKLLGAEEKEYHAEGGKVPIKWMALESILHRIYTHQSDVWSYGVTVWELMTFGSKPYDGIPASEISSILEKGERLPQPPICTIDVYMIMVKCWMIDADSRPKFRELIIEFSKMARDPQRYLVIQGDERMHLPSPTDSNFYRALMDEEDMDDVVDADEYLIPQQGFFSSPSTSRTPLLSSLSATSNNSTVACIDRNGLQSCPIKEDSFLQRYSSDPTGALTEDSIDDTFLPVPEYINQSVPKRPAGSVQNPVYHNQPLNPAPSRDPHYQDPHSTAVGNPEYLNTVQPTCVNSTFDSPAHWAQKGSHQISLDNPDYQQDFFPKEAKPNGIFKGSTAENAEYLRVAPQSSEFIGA
EGFR L858R/T790M, sequence (P00533 25-1210 T790M/L858R): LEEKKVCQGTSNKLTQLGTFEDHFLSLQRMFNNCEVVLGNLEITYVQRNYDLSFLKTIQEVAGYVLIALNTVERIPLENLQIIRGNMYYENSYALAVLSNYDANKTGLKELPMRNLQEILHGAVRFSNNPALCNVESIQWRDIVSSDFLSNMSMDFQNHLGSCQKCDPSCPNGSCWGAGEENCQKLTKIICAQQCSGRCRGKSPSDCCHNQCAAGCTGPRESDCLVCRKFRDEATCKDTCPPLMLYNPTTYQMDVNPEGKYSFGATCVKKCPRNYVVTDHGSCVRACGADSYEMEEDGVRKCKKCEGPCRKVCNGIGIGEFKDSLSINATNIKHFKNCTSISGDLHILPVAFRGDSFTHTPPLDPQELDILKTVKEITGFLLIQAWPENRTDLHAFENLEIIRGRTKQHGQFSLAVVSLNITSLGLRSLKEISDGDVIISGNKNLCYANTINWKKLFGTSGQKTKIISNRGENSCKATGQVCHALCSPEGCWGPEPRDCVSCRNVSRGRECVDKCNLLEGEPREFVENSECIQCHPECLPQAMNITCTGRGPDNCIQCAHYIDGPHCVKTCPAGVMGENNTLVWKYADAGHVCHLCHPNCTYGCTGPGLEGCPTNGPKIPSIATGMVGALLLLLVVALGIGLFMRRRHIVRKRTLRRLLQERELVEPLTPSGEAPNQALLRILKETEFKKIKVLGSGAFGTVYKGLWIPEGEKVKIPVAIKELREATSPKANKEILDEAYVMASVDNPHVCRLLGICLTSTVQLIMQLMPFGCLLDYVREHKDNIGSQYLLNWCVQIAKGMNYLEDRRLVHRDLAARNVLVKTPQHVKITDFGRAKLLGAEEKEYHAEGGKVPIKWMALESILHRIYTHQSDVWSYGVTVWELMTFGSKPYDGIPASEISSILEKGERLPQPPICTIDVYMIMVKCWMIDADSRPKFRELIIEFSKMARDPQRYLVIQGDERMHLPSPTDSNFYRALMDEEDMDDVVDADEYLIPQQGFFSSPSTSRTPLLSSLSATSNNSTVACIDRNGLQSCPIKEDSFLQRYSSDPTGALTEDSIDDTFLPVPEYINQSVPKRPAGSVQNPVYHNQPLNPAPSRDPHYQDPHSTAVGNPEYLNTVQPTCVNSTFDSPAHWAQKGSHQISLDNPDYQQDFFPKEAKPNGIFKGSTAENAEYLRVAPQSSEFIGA
EGFR L858R/T790M/C797S triple mutant (H520*), sequence (P00533 25-1210 T790M/C797S/L858R): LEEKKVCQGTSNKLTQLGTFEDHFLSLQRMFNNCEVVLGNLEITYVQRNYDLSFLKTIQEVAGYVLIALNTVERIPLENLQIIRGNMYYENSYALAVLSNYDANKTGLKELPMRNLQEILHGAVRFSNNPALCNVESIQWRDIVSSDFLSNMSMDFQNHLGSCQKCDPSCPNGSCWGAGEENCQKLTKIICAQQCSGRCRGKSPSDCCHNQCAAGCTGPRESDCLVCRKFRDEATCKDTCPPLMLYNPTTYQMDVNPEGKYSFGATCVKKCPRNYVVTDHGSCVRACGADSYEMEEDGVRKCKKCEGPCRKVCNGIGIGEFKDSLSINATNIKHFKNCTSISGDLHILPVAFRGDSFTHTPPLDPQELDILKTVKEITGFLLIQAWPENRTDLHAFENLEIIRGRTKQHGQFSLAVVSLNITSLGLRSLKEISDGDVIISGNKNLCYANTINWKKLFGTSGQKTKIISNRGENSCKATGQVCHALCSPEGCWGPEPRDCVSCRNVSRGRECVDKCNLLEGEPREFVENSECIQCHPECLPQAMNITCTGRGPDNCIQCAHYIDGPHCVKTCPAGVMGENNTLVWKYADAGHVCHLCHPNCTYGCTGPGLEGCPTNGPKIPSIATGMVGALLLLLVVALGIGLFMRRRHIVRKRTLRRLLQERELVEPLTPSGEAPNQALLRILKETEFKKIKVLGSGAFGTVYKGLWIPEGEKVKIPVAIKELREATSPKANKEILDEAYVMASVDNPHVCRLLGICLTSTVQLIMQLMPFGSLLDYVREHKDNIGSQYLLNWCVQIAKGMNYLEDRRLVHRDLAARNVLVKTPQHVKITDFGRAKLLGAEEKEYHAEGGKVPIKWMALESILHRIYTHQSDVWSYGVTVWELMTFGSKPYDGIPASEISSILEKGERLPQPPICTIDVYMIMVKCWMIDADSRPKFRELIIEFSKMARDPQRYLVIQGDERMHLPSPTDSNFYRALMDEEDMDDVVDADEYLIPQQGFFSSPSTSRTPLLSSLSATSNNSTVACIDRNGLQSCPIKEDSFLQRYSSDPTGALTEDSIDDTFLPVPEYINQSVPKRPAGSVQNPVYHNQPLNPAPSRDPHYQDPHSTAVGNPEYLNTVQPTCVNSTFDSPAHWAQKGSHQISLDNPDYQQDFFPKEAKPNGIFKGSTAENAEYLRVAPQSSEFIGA
EGFR L858R/T790M/C797S, sequence (P00533 25-1210 T790M/C797S/L858R): as above

Take `O=C1CCC(N2C(=O)c3ccc(N4CCC(CN5CCC(OCCCc6cccc7c6C(=O)N(C(C(=O)Nc6nccs6)c6cc(F)ccc6O)C7)CC5)CC4)cc3C2=O)C(=O)N1` (centres unmarked) [compound 297]: the results for the IC50 on EGFR L858R/T790M, on EGFR L858R/T790M/C797S and on EGFR WT were 1800 nM, 310 nM and 1800 nM, respectively. In addition, the “EGFR protein remaining, EGFR L858R/T790M/C797S triple mutant” value (“EGFR protein remaining” below) in assay [1] was “B (≤80% and >50% EGFR protein remaining after 72 hours of incubation with the test compound at a concentration between 300 nM and 10 nM)”.
Turning to `O=C1CCC(N2C(=O)c3ccc(OCCOCCOCCOCCCc4cccc5c4C(=O)N(C(C(=O)Nc4nccs4)c4cc(F)ccc4O)C5)cc3C2=O)C(=O)N1` (centres unmarked) [Example 283, 2-(7-(3-(2-(2-(2-((2-(2,6-dioxopiperidin-3-yl)-1,3-dioxoisoindolin-5-yl)oxy)ethoxy)ethoxy)ethoxy)propyl)-1-oxoisoindolin-2-yl)-2-(5-fluoro-2-hydroxyphenyl)-N-(thiazol-2-yl)acetamide], the IC50 on EGFR L858R/T790M came to 2800 nM; on EGFR L858R/T790M/C797S it was 820 nM; on EGFR WT it was 1200 nM; at EGFR Exon20NPG, 4600 nM. Besides, the “EGFR protein remaining” value in assay [1] is reported as “C (>80% EGFR protein remaining after 72 hours of incubation with the test compound at a concentration of 300 nM)”.
For `Cc1ncsc1-c1ccc([C@H](C)NC(=O)[C@H]2C[C@H](O)CN2C(=O)[C@@H](NC(=O)COCCOCCOCCOCCOCCOc2ccc(-c3nccc(Nc4cc5c(cn4)nc(C)n5C(C)C)n3)cc2)C(C)(C)C)cc1` [compound 280], the IC50 at EGFR L858R/T790M, on EGFR L858R/T790M/C797S, on EGFR WT and at EGFR Exon20NPG was over 30000 nM in each case. Further, the “EGFR protein remaining” value in assay [1] is “C (>80% EGFR protein remaining after 72 hours of incubation with the test compound at a concentration of 300 nM)”.
Turning to `CC(C)n1c(COCCN2CCN(c3ccc(OCCCN4CCN(c5ccc6c(c5)C(=O)N(C5CCC(=O)NC5=O)C6=O)CC4)cc3)CC2)nc2cnc(Nc3ccnc(-c4cnn(S(=O)(=O)C5CC5)c4)n3)cc21` (centres unmarked) [compound 305], the values for the 50% inhibitory concentration (IC50) at EGFR L858R/T790M, at EGFR L858R/T790M/C797S and at EGFR WT were 9.8 nM, 1.3 nM and 2100 nM, respectively. For the same compound, the “EGFR protein remaining” value in assay [1] is listed as “C (>80% EGFR protein remaining after 72 hours of incubation with the test compound at a concentration of 300 nM)”.
With `COC1CCN(c2nccc(Nc3cc4c(cn3)nc(COCCN3CCN(c5ccc(OCCCOCC(=O)N[C@H](C(=O)N6C[C@H](O)C[C@H]6C(=O)NCc6ccc(-c7scnc7C)cc6)C(C)(C)C)cc5)CC3)n4C(C)C)n2)CC1` [compound 303], the IC50 on EGFR L858R/T790M was 550 nM; on EGFR L858R/T790M/C797S, 250 nM; on EGFR WT, over 30000 nM. For the same compound, the “EGFR protein remaining” value in assay [1] was “A (≤50% EGFR protein remaining after 72 hours of incubation with the test compound at a concentration between 300 nM and 10 nM)”.
On to `O=C1CCC(N2C(=O)c3ccc(N4CCC(CN5CCC(OC/C=C/c6cccc7c6C(=O)N(C(C(=O)Nc6nccs6)c6cc(F)ccc6O)C7)CC5)CC4)cc3C2=O)C(=O)N1` (centres unmarked) [compound 298], for which the half-inhibitory concentration (IC50) at EGFR L858R/T790M was determined as 1400 nM; at EGFR L858R/T790M/C797S, 540 nM; on EGFR WT it was 1600 nM. Also, the “EGFR protein remaining” value in assay [1] is recorded as “C (>80% EGFR protein remaining after 72 hours of incubation with the test compound at a concentration of 300 nM)”.
As to `Cc1ncsc1-c1ccc([C@H](C)NC(=O)[C@@H]2C[C@@H](O)CN2C(=O)[C@@H](NC(=O)COCCOCCOCCOCCOCCOCCOCC#Cc2cccc3c2C(=O)N(C(C(=O)Nc2nccs2)c2cc(F)ccc2O)C3)C(C)(C)C)cc1` (some centres unmarked) [compound 299], the half-inhibitory concentration (IC50) at EGFR L858R/T790M was 4600 nM; on EGFR L858R/T790M/C797S it was 200 nM; at EGFR WT it was 240 nM. The “EGFR protein remaining” value in assay [1] is given as “C (>80% EGFR protein remaining after 72 hours of incubation with the test compound at a concentration of 300 nM)”.
In the same order, the values of `O=C1CCC(N2C(=O)c3cccc(NCCOCCOCCOCCOCCOCCOCC#Cc4cccc5c4C(=O)N(C(C(=O)Nc4nccs4)c4cc(F)ccc4O)C5)c3C2=O)C(=O)N1` (centres unmarked) [compound 295] are 3100 nM, 710 nM, 34000 nM and “C (>80% EGFR protein remaining after 72 hours of incubation with the test compound at a concentration of 300 nM)”.
As to `O=C1CCC(N2C(=O)c3ccc(N4CCN(CCCOCCCCNc5cccc6c5C(=O)N(C(C(=O)Nc5nccs5)c5cc(F)ccc5O)C6)CC4)cc3C2=O)C(=O)N1` (centres unmarked) [compound 289], the values for the IC50 on EGFR L858R/T790M, at EGFR L858R/T790M/C797S and at EGFR WT were 1700 nM, 190 nM and 1200 nM, respectively. Also, the “EGFR protein remaining” value in assay [1] is “C (>80% EGFR protein remaining after 72 hours of incubation with the test compound at a concentration of 300 nM)”.
As for `Cc1ncsc1-c1ccc([C@H](C)NC(=O)[C@H]2C[C@H](O)CN2C(=O)[C@@H](NC(=O)COCCOCCOCCOCCOC2CCN(c3nccc(Nc4cc5c(cn4)nc(C)n5C(C)C)n3)CC2)C(C)(C)C)cc1` [compound 284], the IC50 on EGFR L858R/T790M was over 30000 nM; on EGFR L858R/T790M/C797S, 12000 nM; on EGFR WT it was 14000 nM; at EGFR Exon20NPG it was 30000 nM. For the same compound, the “EGFR protein remaining” value in assay [1] is “C (>80% EGFR protein remaining after 72 hours of incubation with the test compound at a concentration of 300 nM)”.
For `COC1CCN(c2nccc(Nc3cc4c(cn3)nc(COCCN3CCN(c5ccc(O[C@H]6C[C@H](OCC(=O)N[C@H](C(=O)N7C[C@H](O)C[C@H]7C(=O)NCc7ccc(-c8scnc8C)cc7)C(C)(C)C)C6)cc5)CC3)n4C(C)C)n2)CC1` [Example 302, (2S,4R)-4-hydroxy-1-((S)-2-(2-((1r,3s)-3-(4-(4-(2-((1-isopropyl-6-((2-(4-methoxypiperidin-1-yl)pyrimidin-4-yl)amino)-1H-imidazo[4,5-c]pyridin-2-yl)methoxy)ethyl)piperazin-1-yl)phenoxy)cyclobutoxy)acetamido)-3,3-dimethylbutanoyl)-N-(4-(4-methylthiazol-5-yl)benzyl)pyrrolidine-2-carboxamide], the figures for the IC50 at EGFR L858R/T790M, at EGFR L858R/T790M/C797S and at EGFR WT were 670 nM, 320 nM and over 30000 nM, respectively. Further, in assay [1], the “EGFR protein remaining” value was “A (≤50% EGFR protein remaining after 72 hours of incubation with the test compound at a concentration between 300 nM and 10 nM)”.

(Values after patent US10994015B2, “EGFR proteolysis targeting chimeric molecules and associated methods of use” (Arvinas Operations, Inc., priority 2016, dated 2021).)
